pKi: −log10 of the molar value. Active and inactive are the calls of the source. The calls are words filed in the database; no cut-off is given here.
Key:
[1] = target: T1, Ectonucleotide pyrophosphatase/phosphodiesterase family member 3 (Homo sapiens) (UniProt O14638); test: Inhibition of human recombinant NPP3 expressed in insect SF9 cells using ATP as substrate at >100 uM preincubated with substrate followed by protein addition and subsequent incubation for 60 mins by capillary electrophoresis
T1 sequence (whole entry): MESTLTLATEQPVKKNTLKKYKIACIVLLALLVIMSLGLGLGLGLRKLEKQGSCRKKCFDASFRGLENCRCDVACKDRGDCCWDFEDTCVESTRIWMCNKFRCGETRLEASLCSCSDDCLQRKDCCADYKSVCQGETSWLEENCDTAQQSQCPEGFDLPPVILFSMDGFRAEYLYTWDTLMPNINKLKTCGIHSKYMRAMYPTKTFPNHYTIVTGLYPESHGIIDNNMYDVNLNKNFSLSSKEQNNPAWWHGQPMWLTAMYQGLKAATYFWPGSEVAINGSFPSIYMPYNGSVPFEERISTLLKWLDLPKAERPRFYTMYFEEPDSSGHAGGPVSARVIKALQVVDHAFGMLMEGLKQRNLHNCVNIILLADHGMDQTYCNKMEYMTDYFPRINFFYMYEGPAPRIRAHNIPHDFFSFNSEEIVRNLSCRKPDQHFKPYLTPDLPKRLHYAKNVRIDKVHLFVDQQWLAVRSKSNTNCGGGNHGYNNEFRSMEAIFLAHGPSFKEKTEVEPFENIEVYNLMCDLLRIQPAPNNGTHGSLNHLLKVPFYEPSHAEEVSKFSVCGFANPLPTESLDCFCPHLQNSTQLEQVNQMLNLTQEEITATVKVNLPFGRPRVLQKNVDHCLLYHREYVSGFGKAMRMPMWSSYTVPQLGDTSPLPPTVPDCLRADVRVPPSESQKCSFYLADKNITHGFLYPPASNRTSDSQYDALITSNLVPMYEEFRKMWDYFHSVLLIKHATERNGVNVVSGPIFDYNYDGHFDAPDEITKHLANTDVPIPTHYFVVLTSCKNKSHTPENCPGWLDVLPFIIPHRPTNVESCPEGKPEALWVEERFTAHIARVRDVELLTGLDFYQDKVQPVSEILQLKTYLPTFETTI

[2] = organism: Homo sapiens; test: Selectivity ratio of Ki for human recombinant NPP2 to Ki for human recombinant NPP1
[3] = target: T2, Ectonucleotide pyrophosphatase/phosphodiesterase family member 1 (Homo sapiens, UniProt P22413); test: Inhibition of human recombinant NPP1 expressed in insect SF9 cells using ATP as substrate preincubated with substrate followed by protein addition and subsequent incubation for 30 mins by capillary electrophoresis
T2 sequence (P22413 whole entry): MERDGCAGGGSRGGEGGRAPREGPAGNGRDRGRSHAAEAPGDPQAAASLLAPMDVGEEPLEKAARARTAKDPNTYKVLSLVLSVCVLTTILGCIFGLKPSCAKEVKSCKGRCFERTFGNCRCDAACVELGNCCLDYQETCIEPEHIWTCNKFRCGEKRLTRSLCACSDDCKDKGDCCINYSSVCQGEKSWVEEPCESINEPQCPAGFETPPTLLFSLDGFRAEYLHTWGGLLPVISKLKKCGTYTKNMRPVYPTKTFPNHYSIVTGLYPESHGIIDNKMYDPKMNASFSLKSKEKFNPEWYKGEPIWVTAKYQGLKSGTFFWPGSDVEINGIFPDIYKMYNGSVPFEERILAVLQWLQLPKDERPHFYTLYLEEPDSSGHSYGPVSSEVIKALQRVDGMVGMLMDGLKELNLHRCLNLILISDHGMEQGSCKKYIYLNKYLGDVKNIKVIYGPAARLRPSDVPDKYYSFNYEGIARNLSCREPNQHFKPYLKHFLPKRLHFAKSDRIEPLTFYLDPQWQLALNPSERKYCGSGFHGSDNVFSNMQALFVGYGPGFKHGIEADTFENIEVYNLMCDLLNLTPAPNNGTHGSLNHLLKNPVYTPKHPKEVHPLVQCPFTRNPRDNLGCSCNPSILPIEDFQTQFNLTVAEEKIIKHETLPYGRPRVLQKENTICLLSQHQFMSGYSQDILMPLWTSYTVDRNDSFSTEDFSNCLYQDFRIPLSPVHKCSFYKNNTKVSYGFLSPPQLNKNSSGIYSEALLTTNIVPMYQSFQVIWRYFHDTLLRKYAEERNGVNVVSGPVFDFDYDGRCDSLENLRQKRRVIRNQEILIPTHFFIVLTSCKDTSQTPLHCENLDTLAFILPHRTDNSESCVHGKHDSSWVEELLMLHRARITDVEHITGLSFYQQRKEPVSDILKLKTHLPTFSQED

[4] = target: 5'-nucleotidase (Homo sapiens) (UniProt P21589); test: Inhibition of human recombinant Ecto-5'-nucleotidase expressed in CHO cells using AMP as substrate at >100 uM preincubated with substrate followed by protein addition and subsequent incubation for 30 mins by capillary electrophoresis
5'-nucleotidase (Homo sapiens), sequence (P21589 whole entry): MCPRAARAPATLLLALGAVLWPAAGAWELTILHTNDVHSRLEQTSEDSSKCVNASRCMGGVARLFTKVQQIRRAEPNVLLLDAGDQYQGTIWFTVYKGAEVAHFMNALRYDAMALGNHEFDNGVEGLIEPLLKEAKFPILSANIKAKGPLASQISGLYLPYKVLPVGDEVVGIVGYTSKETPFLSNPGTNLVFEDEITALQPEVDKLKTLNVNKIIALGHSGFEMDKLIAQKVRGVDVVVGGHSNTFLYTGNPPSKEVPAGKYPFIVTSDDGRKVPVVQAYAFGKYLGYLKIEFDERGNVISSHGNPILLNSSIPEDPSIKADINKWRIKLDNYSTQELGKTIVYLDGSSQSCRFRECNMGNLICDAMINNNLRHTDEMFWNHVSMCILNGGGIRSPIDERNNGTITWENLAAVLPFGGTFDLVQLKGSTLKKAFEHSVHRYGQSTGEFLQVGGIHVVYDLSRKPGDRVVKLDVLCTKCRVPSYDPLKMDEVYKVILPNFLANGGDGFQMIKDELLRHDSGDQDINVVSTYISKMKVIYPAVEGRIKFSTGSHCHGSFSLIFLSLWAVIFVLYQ

[5] = target: Autotaxin (Homo sapiens) (UniProt Q13822); test: Inhibition of human recombinant NPP2 expressed in insect SF9 cells using 1-oleoylsn-glycero-3-phosphocholine as substrate at >100 uM preincubated with substrate followed by protein addition and subsequent incubation for 60 mins by colorimetric analysis
[6] = organism: Homo sapiens; test: Selectivity ratio of Ki for human recombinant NPP3 to Ki for human recombinant NPP1
[7] = Drug metabolism of the compound in MgCl2/CaCl2/CHES buffer assessed as 2-hydroxy-3-(5-iodofuran-2-yl)-1-(2-thioxo-2,3-dihydro-1H-benzo[d]imidazol-1-yl)prop-2-en-1-one metabolite formation at pH 9 after 24 hrs by LC-MS analysis; format: physicochemical; conditions: pH 9, 24 h
[8] = organism: Homo sapiens; test: Selectivity ratio of Ki for human recombinant soluble NTPDase2 to Ki for human recombinant NPP1
[9] = target: T3, Ectonucleoside triphosphate diphosphohydrolase 3 (Homo sapiens) (UniProt O75355); test: Inhibition of human recombinant NTPDase3 expressed in NS0 cells using ATP as substrate at 10 to 1000 uM preincubated with substrate followed by protein addition and subsequent incubation for 30 mins by capillary electrophoresis
T3 sequence (whole entry): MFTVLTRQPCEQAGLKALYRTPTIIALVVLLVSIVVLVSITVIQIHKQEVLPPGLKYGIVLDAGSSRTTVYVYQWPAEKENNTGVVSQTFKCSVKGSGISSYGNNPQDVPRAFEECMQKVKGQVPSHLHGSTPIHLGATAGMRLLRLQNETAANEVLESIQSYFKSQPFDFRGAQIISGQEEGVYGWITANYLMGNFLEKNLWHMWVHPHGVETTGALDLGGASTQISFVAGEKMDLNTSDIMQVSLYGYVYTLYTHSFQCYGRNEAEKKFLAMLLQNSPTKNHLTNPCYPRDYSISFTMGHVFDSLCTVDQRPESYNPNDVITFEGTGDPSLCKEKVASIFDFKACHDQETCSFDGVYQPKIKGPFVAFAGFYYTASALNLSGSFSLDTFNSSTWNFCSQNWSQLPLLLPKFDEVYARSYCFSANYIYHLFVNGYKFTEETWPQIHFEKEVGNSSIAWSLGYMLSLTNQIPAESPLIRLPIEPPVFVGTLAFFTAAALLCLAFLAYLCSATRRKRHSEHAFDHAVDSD

inhibition [1]: Active
Ratio Ki [2]: 1000
pKi [3]: 6.33
inhibition [4]: Active
inhibition [5]: Active
Ratio Ki [6]: 1000
Drug metabolism [7]: metabolite_detected
Ratio Ki [8]: 1000
inhibition [9]: inactive
SMILES: O=c1/c(=C/c2ccc(I)o2)sc2nc3ccccc3n12

Reference: ChEMBL document CHEMBL3813632, “Thiazolo[3,2-a]benzimidazol-3(2H)-one derivatives: Structure-activity relationships of selective nucleotide pyrophosphatase/phosphodiesterase1 (NPP1) inhibitors” (Bioorg Med Chem, 2016)
